# Measurements taken from PubChem BioAssay (NCI).
#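 Briefly, cells in 96-well plates were exposed to five compound concentrations for 48 h, and endpoints were estimated by linear interpolation. The concentration for 50% growth inhibition is given as GI50. At the TGI there is no net growth.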
# Columns and labels:
# Experiment in all cases: NCI tumour cell line growth inhibition, 48 h
# [1] = system: 786-0 renal
# [2] = system: A498 renal
# [3] = system: A549 NSCLC
# [4] = system: ACHN renal
# [5] = system: BT-549 breast
# [6] = system: CAKI-1 renal
# [7] = system: CCRF-CEM leukemia
# [8] = system: COLO 205 colon
# [9] = system: DU-145 prostate
# [10] = system: EKVX NSCLC
# [11] = system: HCC-2998 colon
# [12] = system: HCT-116 colon
# [13] = system: HCT-15 colon
# [14] = system: HL-60(TB) leukemia
# [15] = system: HOP-62 NSCLC
# [16] = system: HOP-92 NSCLC
# [17] = system: HS 578T breast
# [18] = system: HT29 colon
# [19] = system: IGROV1 ovarian
# [20] = system: K-562 leukemia
# [21] = system: KM12 colon
# [22] = system: LOX IMVI melanoma
# [23] = system: M14 melanoma
# [24] = system: MALME-3M melanoma
# [25] = system: MCF7 breast
# [26] = system: MDA-MB-231 breast
# [27] = system: MDA-MB-435
# [28] = system: MOLT-4 leukemia
# [29] = system: NCI-H226 lung
# [30] = system: NCI-H23 lung
# [31] = system: NCI-H460 lung
# [32] = system: NCI-H522 lung
# [33] = system: NCI/ADR-RES ovarian
# [34] = system: OVCAR-3 ovarian
# [35] = system: OVCAR-4 ovarian
# [36] = system: OVCAR-5 ovarian
# [37] = system: OVCAR-8 ovarian
# [38] = system: PC-3 prostate
# [39] = system: RPMI-8226 leukemia
# [40] = system: RXF 393 renal
# [41] = system: SF-268 CNS
# [42] = system: SF-295 CNS
# [43] = system: SF-539 CNS
# [44] = system: SK-MEL-2 melanoma
# [45] = system: SK-MEL-28 melanoma
# [46] = system: SK-MEL-5 melanoma
# [47] = system: SK-OV-3 ovarian
# [48] = system: SN12C renal
# [49] = system: SNB-19 CNS
# [50] = system: SNB-75 CNS
# [51] = system: SW-620 colon
# [52] = system: T-47D breast
# [53] = system: TK-10 renal
# [54] = system: U251 CNS
# [55] = system: UACC-257 melanoma
# [56] = system: UACC-62 melanoma
# [57] = system: UO-31 renal
smiles,measurement,setting,value
Cc1cc(O)cc2c1[C@]1(C)CCC3C(C)(C)CCC[C@]3(C)[C@H]1C2 (some centres not stated),GI50,[1],19.4 µM
same,TGI,[1],34.3 µM
same,GI50,[2],23.2 µM
same,TGI,[2],39.1 µM
same,GI50,[3],22.7 µM
same,TGI,[3],42.1 µM
same,GI50,[4],19.1 µM
same,TGI,[4],33.3 µM
same,GI50,[5],21.6 µM
same,TGI,[5],38.6 µM
same,GI50,[6],18.1 µM
same,TGI,[6],31.9 µM
same,GI50,[7],29.6 µM
same,TGI,[7],92 µM
same,GI50,[8],18.8 µM
same,TGI,[8],34 µM
same,GI50,[9],19.1 µM
same,TGI,[9],35 µM
same,GI50,[10],19.9 µM
same,TGI,[10],36.6 µM
same,GI50,[11],22.1 µM
same,TGI,[11],38 µM
same,GI50,[12],19 µM
same,TGI,[12],33 µM
same,GI50,[13],19.9 µM
same,TGI,[13],38.1 µM
same,GI50,[14],32.4 µM
same,TGI,[14],> 100 µM
same,GI50,[15],20.6 µM
same,TGI,[15],35.5 µM
same,GI50,[16],18.4 µM
same,TGI,[16],35.3 µM
same,GI50,[17],22.6 µM
same,TGI,[17],44.6 µM
same,GI50,[18],18.5 µM
same,TGI,[18],35.5 µM
same,GI50,[19],20.5 µM
same,TGI,[19],36.9 µM
same,GI50,[20],67.4 µM
same,TGI,[20],> 100 µM
same,GI50,[21],20 µM
same,TGI,[21],35.3 µM
same,GI50,[22],19.5 µM
same,TGI,[22],35.8 µM
same,GI50,[23],21.6 µM
same,TGI,[23],37.6 µM
same,GI50,[24],23.2 µM
same,TGI,[24],39.4 µM
same,GI50,[25],18.6 µM
same,TGI,[25],33.3 µM
same,GI50,[26],22 µM
same,TGI,[26],38.5 µM
same,GI50,[27],18.8 µM
same,TGI,[27],33.4 µM
same,GI50,[28],28.1 µM
same,TGI,[28],98.6 µM
same,GI50,[29],22.4 µM
same,TGI,[29],41.4 µM
same,GI50,[30],22.5 µM
same,TGI,[30],42 µM
same,GI50,[31],20.6 µM
same,TGI,[31],37.1 µM
same,GI50,[32],20.8 µM
same,TGI,[32],38.9 µM
same,GI50,[33],21.4 µM
same,TGI,[33],39.8 µM
same,GI50,[34],19.2 µM
same,TGI,[34],33.5 µM
same,GI50,[35],17.5 µM
same,TGI,[35],33.8 µM
same,GI50,[36],21.4 µM
same,TGI,[36],37.2 µM
same,GI50,[37],26.1 µM
same,TGI,[37],54.8 µM
same,GI50,[38],24.7 µM
same,TGI,[38],65.1 µM
same,GI50,[39],29.6 µM
same,TGI,[39],74.7 µM
same,GI50,[40],25 µM
same,TGI,[40],50.4 µM
same,GI50,[41],21 µM
same,TGI,[41],39.4 µM
same,GI50,[42],20.3 µM
same,TGI,[42],36 µM
same,GI50,[43],20.6 µM
same,TGI,[43],37.9 µM
same,GI50,[44],26.2 µM
same,TGI,[44],52.7 µM
same,GI50,[45],20.4 µM
same,TGI,[45],36.7 µM
same,GI50,[46],19.1 µM
same,TGI,[46],33.2 µM
same,GI50,[47],21.9 µM
same,TGI,[47],38.6 µM
same,GI50,[48],17.2 µM
same,TGI,[48],32.3 µM
same,GI50,[49],20.8 µM
same,TGI,[49],35.7 µM
same,GI50,[50],17.9 µM
same,TGI,[50],34.2 µM
same,GI50,[51],18.5 µM
same,TGI,[51],33.6 µM
same,GI50,[52],16.7 µM
same,TGI,[52],43.3 µM
same,GI50,[53],18.7 µM
same,TGI,[53],36.4 µM
same,GI50,[54],19.2 µM
same,TGI,[54],33.5 µM
same,GI50,[55],23.6 µM
same,TGI,[55],41.3 µM
same,GI50,[56],18.6 µM
same,TGI,[56],33.2 µM
same,GI50,[57],20.5 µM
same,TGI,[57],36.4 µM
COc1ccc(/C(COc2ccc3c(=O)c(-c4ccccc4)coc3c2)=N\O)cc1,GI50,[1],16.9 µM
same,TGI,[1],38.5 µM
same,GI50,[2],3.22 µM
same,TGI,[2],18.5 µM
same,GI50,[3],14.8 µM
same,TGI,[3],> 83.6 µM
same,GI50,[4],11.3 µM
same,TGI,[4],34 µM
same,GI50,[5],8.27 µM
same,TGI,[5],54.7 µM
same,GI50,[6],1.46 µM
same,TGI,[6],7.47 µM
same,GI50,[7],3.9 µM
same,TGI,[7],> 100 µM
same,GI50,[8],9.66 µM
same,TGI,[8],> 36.3 µM
same,GI50,[9],4.09 µM
same,TGI,[9],33.4 µM
same,GI50,[10],4.94 µM
same,TGI,[10],38.7 µM
same,GI50,[11],3.09 µM
same,TGI,[11],9.15 µM
same,GI50,[12],18.3 µM
same,TGI,[12],44.6 µM
same,GI50,[13],0.349 µM
same,TGI,[13],12.9 µM
same,GI50,[14],0.119 µM
same,TGI,[14],2.2 µM
same,GI50,[15],8.52 µM
same,TGI,[15],33.7 µM
same,GI50,[16],8.83 µM
same,TGI,[16],47 µM
same,GI50,[17],3.79 µM
same,TGI,[17],44.6 µM
same,GI50,[18],2.89 µM
same,TGI,[18],> 44.5 µM
same,GI50,[19],7.37 µM
same,TGI,[19],38.3 µM
same,GI50,[20],0.0674 µM
same,TGI,[20],> 100 µM
same,GI50,[21],1.5 µM
same,TGI,[21],40.4 µM
same,GI50,[22],4.73 µM
same,TGI,[22],> 45.9 µM
same,GI50,[23],8.49 µM
same,TGI,[23],23.8 µM
same,GI50,[24],0.72 µM
same,TGI,[24],5.91 µM
same,GI50,[25],3.16 µM
same,TGI,[25],> 50.9 µM
same,GI50,[26],0.698 µM
same,TGI,[26],18.5 µM
same,GI50,[27],2.17 µM
same,TGI,[27],4.64 µM
same,GI50,[28],1.08 µM
same,TGI,[28],> 100 µM
same,GI50,[29],15.2 µM
same,TGI,[29],89 µM
same,GI50,[30],19.3 µM
same,TGI,[30],62.8 µM
same,GI50,[31],4 µM
same,TGI,[31],31.7 µM
same,GI50,[32],4.65 µM
same,TGI,[32],20.6 µM
same,GI50,[33],0.652 µM
same,TGI,[33],35.5 µM
same,GI50,[34],0.987 µM
same,TGI,[34],10.8 µM
same,GI50,[35],16.1 µM
same,TGI,[35],> 100 µM
same,TGI,[36],> 96.5 µM
same,GI50,[37],12.1 µM
same,TGI,[37],64.3 µM
same,GI50,[38],6.53 µM
same,TGI,[38],58.7 µM
same,GI50,[39],2.29 µM
same,TGI,[39],> 54.2 µM
same,GI50,[40],7.81 µM
same,TGI,[40],> 80.7 µM
same,GI50,[41],6.36 µM
same,TGI,[41],> 78.5 µM
same,GI50,[42],2.59 µM
same,TGI,[42],25.5 µM
same,GI50,[43],1.6 µM
same,TGI,[43],5.32 µM
same,GI50,[44],3.5 µM
same,TGI,[44],23.7 µM
same,GI50,[45],10.2 µM
same,TGI,[45],> 90.9 µM
same,GI50,[46],0.394 µM
same,TGI,[46],4.74 µM
same,GI50,[47],10.1 µM
same,TGI,[47],29.5 µM
same,GI50,[48],1.65 µM
same,TGI,[48],16.4 µM
same,GI50,[49],14.9 µM
same,TGI,[49],> 86.7 µM
same,GI50,[50],14.5 µM
same,TGI,[50],> 70.9 µM
same,GI50,[51],2.37 µM
same,TGI,[51],16.9 µM
same,GI50,[52],6.96 µM
same,TGI,[52],> 37.2 µM
same,GI50,[53],0.988 µM
same,TGI,[53],9.22 µM
same,GI50,[54],1.1 µM
same,TGI,[54],> 39.6 µM
same,GI50,[55],17.9 µM
same,TGI,[55],> 60 µM
same,GI50,[56],0.662 µM
same,TGI,[56],21.2 µM
same,GI50,[57],9.02 µM
same,TGI,[57],27.7 µM
